According to PubChem BioAssay AID2060883 (Molecular Pharmacology Branch, DTP, NCI, 2025):

System: 843782-103-R-J1-PDC complex spheroid viability
Assay: Anticancer human tumor 843782-103-R-J1-PDC patient-derived lung adenocarcinoma cell line growth inhibition [RAS]
Conditions: for IC50: curve of first compound; for viability, T/C: stronger effect = lower value; active = viability on the fitted dose curve at most 10% of control; inactive = the rest
Source text: RAS pathway inhibitors in Combinations in Complex Spheroids
A high-throughput screen of multi-cell type tumor spheroids was designed to identify active combinations of RAS pathway inhibitors and targeted small molecules. Complex spheroids include a stromal component modeled by human endothelial cells (HUVEC) and fibroblasts modeled by human mesenchymal stem cells (MSCs). The concentration ranges selected for each drug and investigational agent were based upon clinically achievable concentrations if the clinical Cmax of the agent was known.
Compounds. The drugs and investigational agents: abemaciclib (NSC768073), cobimetinib (NSC768068), divarasib (GDC6063, NSC841802), docetaxel (NSC628503), GDC-1971 (RLY-1971, NSC841576), gemcitabine (NSC613327), inavolisib (NSC800729), ipatasertib (NSC767898), KB-0742 (NSC834161), MRTX-1133 (NSC836407), osimertinib (NSC779217), RMC-4630 (NSC839698), RMC-6236 (NSC851965), RMC-6291 (NSC852671), Ro-3306 (NSC812927), sapanisertib (NSC764658), SN-38 (NSC673596), staurosporine (NSC755774), SY5609 (NSC837396), and tovorafenib (DAY101, NSC766906), were obtained from the National Cancer Institute (NCI) Developmental Therapeutics Program Chemical Repository. The FDA-approved anticancer drug set is available from the NCI Developmental Therapeutics Program. […] The stock solutions were prepared in dimethyl sulfoxide (DMSO, Sigma-Aldrich, St. Louis, MO, cat. D2650) at 800-fold the tested concentration and stored at -70 degrees C prior to their use. All drugs and investigational agents were tested over a range starting from a high concentration at or near the clinical Cmax and decreasing in half-log increments. If the clinical Cmax for an agent had not been determined, the highest concentration tested was 10 microM.
Cell Culture. All cells were maintained in an incubator at 37 degrees C and 5% CO2 with 95% humidity. The PDC lines were cultured according to standard operating procedures established by the NCI PDMR. All PDCs were thawed and cultured in Matrigel-coated flasks prepared with a working solution of 1X Ham's F-12 nutrient mix, without supplementation (Invitrogen, Waltham, MA, cat. 11765054), 100 U/mL penicillin-streptomycin (Invitrogen, cat. 15140122), and 2.5% Matrigel (Corning Inc., Corning, NY, cat. 354248) for the first three passages. The 362531-283-R-J2-PDC and 782815-120-R-J1-PDC lines were cultured in 6C/Colon 1B media, which includes advanced DMEM/F-12 (Thermo Fisher Scientific, cat. 12634028), 10 mM HEPES (Thermo Fisher Scientific, cat. 15630080), 1X GlutaMAX supplement (Thermo Fisher Scientific, cat. 35050061), 0.1 mg/mL primocin (InvivoGen, San Diego, CA, cat. ant-pm-2), 10% defined fetal bovine serum, heat inactivated (HyClone Laboratories Inc., Logan, UT, cat. SH30070.03HI), 50% L-WRN conditioned media (ATCC, cat. CRL-3276), 1.25 mM N-Acetyl-L-cysteine (Sigma-Aldrich, cat. A9165), 10 mM nicotinamide (Sigma-Aldrich, cat. N0636), 1X B-27 supplement (Thermo Fisher Scientific, cat. 17504044), 1X N-2 supplement (Thermo Fisher Scientific, cat. 17502048), 50 ng/mL human EGF (Thermo Fisher Scientific, cat. PHG0311), and 10 microM Y-27632 dihydrochloride (Tocris Bioscience, cat. 1254). The K12877-001-R-J1-PDC line was cultured in 6I media, which includes all 6C/Colon 1B media plus 10 ng/mL human FGF-10 (PeproTech, cat. 100-26), 1 ng/mL human FGF-2 (PeproTech, cat. 100-18B), 1 µM prostaglandin E2 (Tocris Bioscience, cat. 2296), […] hydrocortisone (Sigma-Aldrich, cat. H4001), and […] bovine insulin (Sigma-Aldrich, cat. I6634). The K86415-001-R-J1-PDC line was cultured in 6D media, which includes all 6C/Colon 1B media components minus the L-WRN conditioned media. The 485176-168-R4-J1-PDC was cultured in PANC media, which includes all 6C/Colon 1B media plus 100 ng/mL human FGF-10 (PeproTech, cat. 100-26), 500 nM SB-431542 (Selleckchem, cat. S1067), and 10 nM gastrin (Tocris Bioscience, cat. 3006). […]

[1] = second compound 0.0316 µM, first compound 0.0316 µM
[2] = second compound 0.0316 µM, first compound 0.1 µM
[3] = second compound 0.1 µM, first compound 0.0316 µM
[4] = second compound 0.1 µM, first compound 0.1 µM
[5] = second compound 0.316 µM, first compound 0.0316 µM
[6] = second compound 0.316 µM, first compound 0.1 µM
[7] = second compound 1 µM, first compound 0.0316 µM
[8] = second compound 1 µM, first compound 0.1 µM
[9] = second compound 3.16 µM, first compound 0.0316 µM
[10] = second compound 3.16 µM, first compound 0.1 µM
[11] = second compound 10 µM, first compound 0.0316 µM
[12] = second compound 10 µM, first compound 0.1 µM
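Note: viability read after seven days of compound exposure.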

CC(C)n1nc(-c2ccc3oc(N)nc3c2)c2c(N)ncnc21 + C#Cc1c(F)ccc2cc(O)cc(-c3ncc4c(N5CC6CCC(C5)N6)nc(OCC56CCCN5CC(F)C6)nc4c3F)c12
6.61 nM: IC50 (second compound 3.16 µM)
24.4 nM: IC50 (second compound 0.1 µM)
inactive: viability, T/C (second compound 0.0316 µM, first compound 0.000316 µM) 108% | viability, T/C (second compound 0.0316 µM, first compound 0.001 µM) 93.9% | viability, T/C (second compound 0.0316 µM, first compound 0.00316 µM) 97.5% | viability, T/C (second compound 0.0316 µM, first compound 0.01 µM) 70.8% | viability, T/C [1] 55.1% | viability, T/C [2] 31.2% | viability, T/C (second compound 0.1 µM, first compound 0.000316 µM) 105% | viability, T/C (second compound 0.1 µM, first compound 0.001 µM) 95.7% | viability, T/C (second compound 0.1 µM, first compound 0.00316 µM) 93.8% | viability, T/C (second compound 0.1 µM, first compound 0.01 µM) 72.5% | viability, T/C [3] 42.8% | viability, T/C [4] 29.8% | viability, T/C (second compound 0.316 µM, first compound 0.000316 µM) 101% | viability, T/C (second compound 0.316 µM, first compound 0.001 µM) 91.2% | viability, T/C (second compound 0.316 µM, first compound 0.00316 µM) 91.2% | viability, T/C (second compound 0.316 µM, first compound 0.01 µM) 66.3% | viability, T/C [5] 40.6% | viability, T/C [6] 26% | viability, T/C (second compound 1 µM, first compound 0.000316 µM) 99.7% | viability, T/C (second compound 1 µM, first compound 0.001 µM) 87.8% | viability, T/C (second compound 1 µM, first compound 0.00316 µM) 81.7% | viability, T/C (second compound 1 µM, first compound 0.01 µM) 62.1% | viability, T/C [7] 39.6% | viability, T/C [8] 21.8% | viability, T/C (second compound 3.16 µM, first compound 0.000316 µM) 93% | viability, T/C (second compound 3.16 µM, first compound 0.001 µM) 70% | viability, T/C (second compound 3.16 µM, first compound 0.00316 µM) 71.8% | viability, T/C (second compound 3.16 µM, first compound 0.01 µM) 39.1% | viability, T/C [9] 25.3% | viability, T/C [10] 19.4% | viability, T/C (second compound 10 µM, first compound 0.000316 µM) 63.3% | viability, T/C (second compound 10 µM, first compound 0.001 µM) 41% | viability, T/C (second compound 10 µM, first compound 0.00316 µM) 38.5% | viability, T/C (second compound 10 µM, first compound 0.01 µM) 28% | viability, T/C [11] 18.8% | viability, T/C [12] 10.6%
18.9 nM: IC50 (second compound 1 µM)
0.794 nM: IC50 (second compound 10 µM)
20.8 nM: IC50 (second compound 0.316 µM)
38.3 nM: IC50 (second compound 0.0316 µM)

C[C@@H](NC(=O)c1ncnc(N)c1Cl)c1ncc(C(=O)Nc2cc(C(F)(F)F)c(Cl)cn2)s1 + C#Cc1c(F)ccc2cc(O)cc(-c3ncc4c(N5CC6CCC(C5)N6)nc(OCC56CCCN5CC(F)C6)nc4c3F)c12
inactive: viability, T/C [1] 114% | viability, T/C [2] 97.2% | viability, T/C (second compound 0.0316 µM, first compound 0.316 µM) 99.9% | viability, T/C (second compound 0.0316 µM, first compound 1 µM) 101% | viability, T/C (second compound 0.0316 µM, first compound 3.16 µM) 112% | viability, T/C (second compound 0.0316 µM, first compound 10 µM) 101% | viability, T/C [3] 112% | viability, T/C [4] 105% | viability, T/C (second compound 0.1 µM, first compound 0.316 µM) 98.6% | viability, T/C (second compound 0.1 µM, first compound 1 µM) 101% | viability, T/C (second compound 0.1 µM, first compound 3.16 µM) 101% | viability, T/C (second compound 0.1 µM, first compound 10 µM) 105% | viability, T/C [5] 110% | viability, T/C [6] 104% | viability, T/C (second compound 0.316 µM, first compound 0.316 µM) 103% | viability, T/C (second compound 0.316 µM, first compound 1 µM) 102% | viability, T/C (second compound 0.316 µM, first compound 3.16 µM) 106% | viability, T/C (second compound 0.316 µM, first compound 10 µM) 108% | viability, T/C [7] 101% | viability, T/C [8] 100% | viability, T/C (second compound 1 µM, first compound 0.316 µM) 105% | viability, T/C (second compound 1 µM, first compound 1 µM) 101% | viability, T/C (second compound 1 µM, first compound 3.16 µM) 97.2% | viability, T/C (second compound 1 µM, first compound 10 µM) 95.9% | viability, T/C [9] 86.9% | viability, T/C [10] 91% | viability, T/C (second compound 3.16 µM, first compound 0.316 µM) 90.5% | viability, T/C (second compound 3.16 µM, first compound 1 µM) 92.7% | viability, T/C (second compound 3.16 µM, first compound 3.16 µM) 80.9% | viability, T/C (second compound 3.16 µM, first compound 10 µM) 87.2% | viability, T/C [11] 73.3% | viability, T/C [12] 84.3% | viability, T/C (second compound 10 µM, first compound 0.316 µM) 64.8% | viability, T/C (second compound 10 µM, first compound 1 µM) 48.9% | viability, T/C (second compound 10 µM, first compound 3.16 µM) 54.9% | viability, T/C (second compound 10 µM, first compound 10 µM) 49.1%
> 10000 nM: IC50 (second compound 0.0316 µM) | IC50 (second compound 0.1 µM) | IC50 (second compound 0.316 µM) | IC50 (second compound 1 µM) | IC50 (second compound 3.16 µM) | IC50 (second compound 10 µM)
